Test results taken from patent publication US4429044A, “Preparation of an alkaline protease from flavobacterium arborescens” (Miles Laboratories, Inc., priority 1982, dated 1984).

B1: SSI: streptomyces subtilisin inhibitor (protein, UniProt P01006 32-144, looked up)
Subtilisin inhibitor: DAPSALYAPSALVLTVGKGVSATTAAPERAVTLTCAPGPSGTHPAAGSACADLAAVGGDLNALTRGEDVMCPMVYDPVLLTVDGVWQGKRVSYERVFSNECEMNAHGSSVFAF

system: F. arborescens protease; format: biochemical, Flavobacterium arborescens

Molecule	Activity of protease in presence of inhibitor	Effect of inhibitor on protease activity (in words)
O=C(O)CN(CCN(CC(=O)O)CC(=O)O)CC(=O)O [EDTA, ethylenediamine tetraacetate]	4.1 units	–
CCN1C(=O)C=CC1=O [NEM, N--ethyl maleimide]	2.0 units	–
O=S(=O)(F)Cc1ccccc1 [PMSF, phenylmethyl sulfonyl fluoride]	1.9 units	no effect
B1	1.6 units	strongly inhibited
